Tests used:
Type in all cases: in vivo, mouse
C57B1/6 mice [1] = tested on: C57B1/6 mice
Protocol: Growth rates of control and NB-DNJ-treated mice were analysed statistically by univariate analysis of variance (ANOVA) using SPSS software to compare slopes of growth from 54 to 174 days of age.
The effect of NB-DNJ on lean body mass growth was also assessed by measuring tibia lengths in a group of 20 control mice at one year old, 5 mice at 2 years old and two mice 19.5 months old after 18 months on 2400 mg/kg/day. Tibias were dissected from both hind-limbs then boiled in distilled water for 20 min to clean the bone of remaining connective tissue and muscle. Tibia length was then measured using calipers.
It can also be seen (FIG. 4) that the control mice lost weight over the first two weeks of treatment and then started to grow again, and continued to gain weight for the remainder of the study. […] Growth in both groups of mice as measured by the gradient of the line is similar and the data were analysed by univariate analysis of variance (ANOVA) to compare the slopes of growth statistically.
To establish further, whether NB-DNJ has an effect on lean growth of mice tibia lengths were measured in a large (n=20) group of control mice at one year of age, a smaller group (n=5) at two years of age and a comparison was made with two mice treated with NB-DNJ for 18 months.

C57B1/6 mice [2] = assay: Skin histology/thickness and gross dissection for white adipose tissue
Protocol: Six week-old control mice on a normal diet or treated with 2400 mg/kg/day NB-DNJ for four weeks (n=3 in each group), were sacrificed and hair removed by shaving followed by application of a depilatory cream. A small section of skin was excised from the same area of the back of each mouse and processed for histology. After excision, the skin was put into mini histology trays containing OCT compound (BDH Laboratory Supplies, UK) and frozen for cryo-sectioning. Cryosections (10 μm thickness) of skin were then fixed in ice-cold acetone for 30 sec and rinsed under running tap water for 1 minute before dipping briefly in Mayer's haemotoxylin (Sigma, UK). The sections were dehydrated through a rising ethanol concentration series of 70%, 80%, 95%, 100% before clearing with Histo-Clear Histological Clearing agent (National Diagnostics, […], Hull, UK) twice for 5 min. Finally, the sections of skin were mounted with cover slips and DePeX mounting medium (BDH Laboratory Supplies, UK) on glass microscope slides. Another portion of skin (5 mm^2) was taken from each mouse, placed on a microscope slide and skin thickness measured using a micrometer gauge. […] Also, after complete depilation, this group of mice had transparent skin making the visceral organs, ventrally, and the kidneys and spinal vertebrae, dorsally, clearly visible in contrast to the opaque, non-transparent skin of controls. […]

ob/ob mice = assay: Long-term dietary dosing of obese mice, growth curves; conditions: 2400 mg/kg/d in diet
Protocol: Control C57B1/6 and C57BL/6O1aHsd-Lep ob mice were obtained from Harlan, UK at five weeks of age. The mice were housed under standard non-sterile conditions and fed a diet of mouse chow pelleted or expanded ground RM1 diet (SDS Ltd, Witham, Essex) with water available ad libitum. For dietary treatment of the mice with NB-DNJ or NB-DGJ, the diet and compound were admixed thoroughly as dry solids, stored at room temperature and used within 7 days. Unless indicated otherwise, mice were treated with a dose of 2400 mg/kg body weight per day, assuming an intake of around 5 g diet/day. Mice were maintained on diet with or without compound for up to six months of age and were weighed at regular intervals during the course of the experiment (see figure legends for group sizes and further experimental details). To study the effect of compound on obese mice, three groups (n=5) of ob/ob mice were monitored from five weeks of age. One group acted as control and were fed ground RM1 diet. […] All mice were then monitored for up to six months of age. Leptin deficient ob/ob mice are widely used as an animal model of obesity and weigh more than twice as much as a normal mouse, even when fed the same diet. The mice have as much as a five-fold increase in fat content, are hyperphagic, hypothermic, have decreased energy expenditure and are unusually efficient at converting metabolic fuels into fat. Friedman & Halas, Nature 395, 763-70 (1998). These mice were used to investigate the effect of NB-DNJ. […] As NB-DNJ was so effective at reducing white adipose tissue in normal mice, a study was performed to discover if a similar effect would occur in obese mice. […] The control obese mice grew from just over 20 g at five weeks old to about 60 g at six months of age whereas the lean controls had reached about 27 g at the same age. The group of obese mice started on NB-DNJ treatment at 7 weeks old grew at a very much reduced rate and weighed 35 g after six months (40% less than their control littermates). […]

control lean mice = assay: ICV mini-pump implants, long-term intracerebro-ventricular delivery
Protocol: FIG. 11. Control lean mice (n=5 in each group) had icv minipumps (50 mM imino sugar) implanted. Body weight was the monitored at regular intervals over three weeks. See example 7 for further experimental details. The effect of long-term intracerebro-ventricular delivery of imino sugars was determined by the implantation of Alzet mini-osmotic pumps (model 2004, DURECT Corporation, CA, USA) together with the brain infusion kit II which features a high stability low profile cannula. The mini-pumps were loaded with 0.24 ml imino sugar or saline vehicle. The indwelling 28 gauge stainless steel cannula was cut to a length of 2.25 mm. Mice were anaesthetised as for the ICV injections and underwent similar surgical procedures throughout. After drilling a small hole in the cranium at the midline, 2 mm posterior to Bregma, the mini-pump was positioned subcutaneously in the animal's flank and the cannula was implanted. This position and depth ensured delivery to the third cerebral ventricle. The implant was secured to the cranium using VetBond acrylic suture fluid, which was also used to close the surgical wound. The whole procedure lasted less than 9 minutes and mice were fully conscious and recovered within three minutes. For concentration of imino sugar in mini-pumps see figure legends.

[3] = ICV mini-pump 500 mM, first 24 hours

SMILES: CCCCN1C[C@H](O)[C@@H](O)[C@H](O)[C@H]1CO [NB-DNJ, N-butyldeoxynojirimycin]
- weighing less than control counterparts after original weight loss (C57B1/6 mice [1]; 2400 mg/kg/d in diet): 4 g
- lean mass (C57B1/6 mice [1]; admixed with diet, lean mice): did not have any reduction in lean mass
- tibia lengths (C57B1/6 mice [1]; two mice treated for 18 months, 2400 mg/kg/day): within the normal range
- white adipose tissue on gross dissection (C57B1/6 mice [2]; 2400 mg/kg/day): significant depletion of white adipose tissue
- reduction in mouse skin thickness (C57B1/6 mice [2]; 2400 mg/kg/day for four weeks, six week-old mice): 40%
- body weight of obese mice after six months (ob/ob mice; started at 7 weeks old): 35 g
- weight less than control littermates (ob/ob mice; started at 7 weeks old, after six months): 40%
- weight at which obese mice stabilised after losing weight (ob/ob mice; started at 12 weeks old, over three months): less than 40 g
- reduction in food intake compared to the controls (control lean mice; ICV mini-pump 50 mM, NB-DGJ as control): 6%
- reduction of body weight (control lean mice; ICV mini-pump 50 mM, after 3 weeks): 5%
- effect on dietary intake (control lean mice; [3]): ate even less
- effect on weight change (control lean mice; [3]): lost a little more weight
